# Data published in the supplement of paper PMC10307832.
# Key:
# Assay in all cases: relative viability (nuclei count vs DMSO), 5 days (fraction); higher = more cells survive
# BAM7 + Dasatinib = compound: CCOC1=CC=CC=C1N=NC2=C(NN(C2=O)C3=NC(=CS3)C4=CC=CC=C4)C [BAM7] + Cc1nc(Nc2ncc(C(=O)Nc3c(C)cccc3Cl)s2)cc(N2CCN(CCO)CC2)n1 [Dasatinib] (partner 0.075 µM)
# In short: (§1)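 Lung cancer cell lines were seeded in 1536-well plates and dosed by pin tool the next day, with either a single drug or a fixed anchor-drug dose combined with five library-drug doses (not always all listed) spaced in √10 steps. Five days later, one step fixed the cells and stained their nuclei (final 0.05% Triton X-100, 1% formaldehyde, 1 ug/ml Hoechst), and nuclei were counted on 4× images. Relative viability is the nuclei count in treated wells divided by the count in vehicle wells, and each value is the median of duplicate plates.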
# [1] = compound: CCn1c(-c2nonc2N)nc2c(C#CC(C)(C)O)ncc(OC[C@H]3CCCNC3)c21 + O=C(CCCCCCC(=O)Nc1ccccc1)NO [Vorinostat] (partner 1 µM)
# In short: as §1
# [2] = compound: CCn1c(-c2nonc2N)nc2c(C#CC(C)(C)O)ncc(OC[C@H]3CCCNC3)c21 + Cc1nc(NC(=O)N2CCC[C@H]2C(N)=O)sc1-c1ccnc(C(C)(C)C(F)(F)F)c1 [Alpelisib] (partner 2 µM)
# In short: as §1
# [3] = compound: CCn1c(-c2nonc2N)nc2c(C#CC(C)(C)O)ncc(OC[C@H]3CCCNC3)c21 + COc1cccc2cc(-c3nc([C@H]4CC[C@H](C(=O)O)CC4)n4ncnc(N)c34)[nH]c12 [OSI-027] (partner 0.5 µM)
# In short: as §1
Cell Line,relative viability (BAM7 + Dasatinib; first compound 0.5 µM),relative viability (BAM7 + Dasatinib; first compound 5 µM),relative viability (BAM7 + Dasatinib; first compound 15.81 µM),relative viability (BAM7 + Dasatinib; first compound 50 µM),relative viability ([1]; first compound 0.01 µM),relative viability ([1]; first compound 0.03162 µM),relative viability ([1]; first compound 0.1 µM),relative viability ([1]; first compound 0.3162 µM),relative viability ([1]; first compound 1 µM),relative viability ([2]; first compound 0.01 µM),relative viability ([2]; first compound 0.03162 µM),relative viability ([2]; first compound 0.1 µM),relative viability ([2]; first compound 0.3162 µM),relative viability ([2]; first compound 1 µM),relative viability ([3]; first compound 0.01 µM),relative viability ([3]; first compound 0.03162 µM),relative viability ([3]; first compound 0.1 µM),relative viability ([3]; first compound 0.3162 µM),relative viability ([3]; first compound 1 µM)
HCC-366,0.67,0.675,0.708,0.717,0.278,0.3,0.329,0.367,0.372,0.362,0.427,0.293,0.475,0.386,0.963,0.834,0.45,1,0.838
SK-MES-1,0.366,0.289,0.3,0.336,1.08,1.1,1.1,1.05,1.1,0.87,0.916,0.856,1.11,0.953,0.642,0.598,0.552,0.531,0.609
SW 1573,0.575,0.65,0.454,0.431,0.374,0.82,0.451,0.367,0.499,0.717,0.783,0.656,0.73,0.734,0.59,0.559,0.514,0.34,0.27
NCI-H661,0.991,0.965,0.759,0.962,0.787,0.788,0.788,0.742,0.735,0.562,0.553,0.603,0.635,0.576,0.659,0.781,0.644,0.553,0.501
PC-3 [JPC-3],1.04,0.91,1.02,0.946,0.553,–,0.73,0.76,0.751,1.16,1.02,0.977,1.02,1.02,0.786,0.699,0.808,0.736,0.682
NCI-H1623,0.576,0.56,0.573,0.641,–,–,–,–,–,–,–,–,–,–,0.391,0.423,0.485,0.438,0.395
Calu-6,–,–,–,–,–,–,–,–,–,0.92,1.08,1.02,0.963,1.14,–,–,–,–,–
LC-2-ad,0.8,0.555,0.546,0.639,0.736,0.715,0.712,0.659,0.69,0.898,0.973,0.925,0.823,0.565,0.71,0.804,0.871,0.681,0.857
CAL-12T,0.507,0.326,0.402,0.337,0.747,0.679,0.683,0.675,0.603,1.03,1.33,1.21,1.24,0.939,0.424,0.541,0.685,0.453,0.38
RERF-LC-KJ,0.639,0.539,0.323,0.358,0.665,0.595,0.684,0.574,0.628,0.886,0.958,0.737,0.656,0.781,0.497,0.564,0.526,0.446,0.395
